Data taken from patent publication US12478610B2, “Compositions of tryptophol derivatives and 4-ethyl-phenol derivatives, and methods of using same” (B. G. Negev Technologies and Applications Ltd., at …, priority 2020, dated 2025).

Tests used:
human normal whole blood [1] = assay: Thromboelastography (TEG) of human normal whole blood clotting; assay type: cell-based; settings: 200 μM (mixture: 200 μM each); healthy blood; TBS control
human normal whole blood [2] = assay: as above; assay type: cell-based
Description: Clotting of whole blood (from healthy volunteers, and diabetics patients) was monitored by thromboelastography (TEG) on a TEGs 5000 Hemostasis Analyzer (Haemoscope Inc., Niles, IL) equipped with two independent channels. Thermoelastograms were recorded at 37° C. and analyzed using the TEGs Analytical Software) version 4.2.3 provided with the instrument). Reported clotting parameters are the time until the onset in the measured strength considered as clot reaction time, R; the time until achieving 20% of the maximum clot strength (clotting time), k; the rate of clot strength increase measuring the kinetics of clot formation, the α angle; and finally, the maximum clot strength, MA.
Aqueous solutions of molecules mixture in a ratio of 1:1 in deionized water were prepared in the concentration range of 400-1,800 μM. TEG cups were first filled with […] of 250 mM CaCl2, supplemented with […] of human blood sample, followed by the addition of the appropriate volume of the molecule's mixture dissolved in water to obtain the above rang of concentration or TBS as control before initiating the test. The test completed when clotting parameters obtained final values or within 45 min. Each sample was run in duplicates, n≥5 individual blood samples. TEG values of control fell within the acceptable range reported for human whole blood barring an expected decrease in clot strength (MA), as tested blood was deficient in platelets (Scarpelini et al. Biol. Res., 2009).
The inventors have studied the effect of tryptophol acetate and tyrosol acetate on human normal whole blood coagulation. The blood clotting was monitored by thromboelastography (TEG). TEG is one of the most common whole-blood viscoelastic coagulation tests used in clinical laboratories and at the point of care. TEG provides a direct information of the blood clotting kinetic and strength, with no ‘added reagents. Clotting of human normal whole blood was monitored by TEG on a TEG 5000 Hemostasis Analyzer (Haemoscope Inc., Niles, IL) equipped with two independent channels. Thermoelastograms were recorded at 37° C. and analyzed using the TEG Analytical Software (version 4.2.3 provided using the instrument). Reported clotting parameters are the time till onset in the measured strength considered as the clot reaction time, R; the time till achieving 20% of the maximum clot strength (clotting time), k; the rate of the clot strength increase measuring the kinetics of clot formation, the α angle; and lastly, the maximum clot strength, MA (see table 1). […]

[3] = 400 μM (mixture: 400 μM each), healthy blood, TBS control

SMILES | K (human normal whole blood [1]) [min] | MA (mm) (human normal whole blood [1]) | R (human normal whole blood [1]) [min] | α (degree) (human normal whole blood [1]) | K (human normal whole blood [2]; [3]) [min] | MA (mm) (human normal whole blood [2]; [3]) | R (min) (human normal whole blood [2]; [3]) | α (degree) (human normal whole blood [2]; [3]) | effect on the TEG parameters as seen with the mixture at 200 μM each (human normal whole blood [2]; single substance at a similar concentration, whole blood)
NCCc1c[nH]c2ccc(O)cc12 [Serotonin, serotonin] | 2.4 ± 0.2 | 60 ± 0.4 | 6.8 ± 0.9 | 58.2 ± 0.3 | 1.5 ± 0.2 | 61.3 ± 1.7 | 5.2 + 0.4 min | 62.4 ± 0.9 | did not show a similar effect
CC(=O)OCCc1ccc(O)cc1 [compound 180, Tyrosol acetate] | 1.8 | 59.0 | 6.4 | 59.6 | – | – | – | – | –
CC(=O)OCCc1c[nH]c2ccccc12 [compound 203, Tryptophol acetate] | 2.3 ± 0.1 | 60.5 ± 1.5 | 6.2 ± 0.2 | 56.8 ± 2.7 | – | – | – | – | –
